Reference: patent publication US10130677B2, “Antimicrobial peptide and uses thereof” (priority 2013, dated 2018)
Where two headings read alike, the source gives them in different places.

Columns and labels:
[1] = test system: S. aureus JAR060131; format: cell-based, Staphylococcus aureus; conditions: for IC99.9: approx. 1 × 10^6 CFU/ml S. aureus JAR, within 2 hrs (Table 2)
Description: Polypeptides of the invention preferably have an in vitro IC99.9 of at most 150 μM after 2 hours at 37° C. against at least one microbial species in the presence of 50% plasma. Said IC99.9 is preferably determined in accordance with a method for determining the antimicrobial activity as described herein in the Examples. Said method described in the Examples for determining antimicrobial activity of microbes not associated with biofilm involves the mixing of 50 microL of a solution of a polypeptide in PBS with addition of human plasma at a final concentration of 50% and 20 microL of bacterial suspension with 5×10^6 CFU per mL of PBS in a well. After incubation of this mixture for 2 hours at 37° C. under shaking conditions, a sample is used for assessment of the bacterial counts. The lowest peptide concentration at which there is 99.9% of bacteria killed, is called the inhibitory concentration (IC) 99.9. Bacterial counts can be determined by manual CFU counting. For determining antibacterial activity for instance 1×10^6 CFU/ml bacteria are used, for determining antifungal activity for instance 1×10^5 cells/ml are used.
(§1) Peptides were incubated with 1×10^6 CFU/ml of a mid-logarithmic culture of S. aureus JAR060131, methicillin resistant S. aureus (MRSA) LUH14616, Staphylococcus epidermidis RP62a, and Pseudomonas aeruginosa PAO1 in PBS without or with addition of pooled human plasma (Sanquin, Amsterdam, the Netherlands) at a final concentration of 50%. Antimicrobial activity is expressed as the 99.9% lethal concentration (LC99.9), i.e., the lowest peptide concentration which killed ≥99.9% of bacteria after 2 hours of incubation at 37° C. under shaking conditions.

[2] = test system: A. niger PagsA-lux; assay: Effect on fungal growth; format: cell-based, Aspergillus niger; conditions: for concentration inhibiting A. niger growth: 25% plasma, light micrographs only, 16 hours (FIG. 2)
Description: The effect of the peptides on fungal growth was assessed using Aspergillus niger. Peptides were incubated with 7.5×10^4 spores/ml of A. niger PagsA-lux in PBS without or with addition of pooled human plasma at a final concentration of 25%. As positive control, spores were treated with the antifungal caspofungin (Cancidas). Absorbance was measured over time and at 16 hours, fungal growth was visualized using light microscopy.

[3] = test system: S. aureus JAR060131 biofilm formation; format: cell-based, Staphylococcus aureus
Description: After solubilization with ethanol, the optical density at 590 nm is determined as a measure of biofilm mass.
Peptides were incubated with 1×10^8 CFU/ml of S. aureus JAR060131 in biofilm-adjusted BM2 in 96-wells polypropylene plates as described in Antimicrob Agents Chemother 2012; 56: 2696-2704. After 24 hours incubation at 37° C., planktonic bacteria were removed by four washes with PBS and biofilms were stained with crystal violet. After solubilization with ethanol, the optical density at 590 nm was determined as a measure of biofilm mass.
To assess the antibiofilm activity of the peptides in the presence of plasma, 96-wells polypropylene plates were coated with plasma by overnight incubation with 20% plasma at 4° C. Wells were washed once with sterile water and inoculated with S. aureus and peptides as described above.

[4] = test system: Staphylococcus epidermidis RP62a; format: cell-based; conditions: 50% plasma
Description: as §1

[5] = test system: LPS (E. coli 054)-induced IL-12p40 production; assay: LPS neutralization in whole human blood; format: cell-based; conditions: for IC90: LPS-induced IL-12p40, blood from two donors
Source text: (§2) The term “anti-inflammatory activity” of a polypeptide as used herein refers to inhibiting, reducing or preventing an inflammatory response in a subject that has been infected by microbes, e.g. bacteria, viruses, fungi, and/or parasites. Anti-inflammatory activity of polypeptides of the invention is achieved by inhibiting, reducing or preventing the release of pro-inflammatory microbial compounds, such as lipoteichoic acid (LTA), peptidoglycan (PG) and/or lipopolysaccharides (LPS). Anti-inflammatory activity can be measured by methods known in the art. Examples of such method are a LPS neutralization assay and a LTA neutralization assay as described in the Examples of this application. In such method, a polypeptide of the invention is mixed with a fixed concentration of LPS or LTA, such as 500 ng/ml LPS or 2 mg/ml LTA, and incubated for 30 min. Thereafter, these mixtures were added to diluted fresh human whole blood and 20 hours thereafter the level of cytokines (e.g. 1L-8 for LTA and 1L-12p40 for LPS) in the blood sample are measured by ELISA.
(§3) Peptides were pre-incubated with 500 ng/ml LPS (E. coli 054) or 2 mg/ml LTA (S. aureus, endotoxin-free) or 1×10^9 CFU/ml of UV-killed S. aureus JAR060131 for 30 min at 37° C. Diluted whole human blood was stimulated with the peptide-LPS/LTA/S. aureus mixtures for 20 hours at 37° C. IL-12p40 and IL-8 levels in supernatants were determined using ELISA.

[6] = test system: UV-killed S. aureus JAR060131-induced IL-8 production; assay: S. aureus neutralization in whole human blood; format: cell-based; conditions: for IC50: UV-killed S. aureus JAR060131-induced IL-8, blood from one donor
Description: as §3

[7] = test system: LTA (S. aureus)-induced IL-8 production; assay: LTA neutralization in whole human blood; format: cell-based; conditions: for IC50: LTA-induced IL-8, blood from one donor
Source text: as §2, §3

[8] = JAR060131 biofilm formation, 24 h

| Substance | IC99.9 ([1]; 50% plasma) | IC99.9 ([1]; PBS) | other results |
| --- | --- | --- | --- |
| J LRRLYKRVFRLLKRWWRYLKRPVR B (Ac-LRRLYKRVFRLLKRWWRYLKRPVR-NH2) [Peptide P141] | 25.6 µM | 0.8 µM |  |
| J LKKVWKRVARLIKRWFRYLRRPVR B [Peptide P150] | 25.6 µM | 1.6 µM |  |
| J LKKLYKRLFKILKRILRYLRKPVR B (Ac-LKKLYKRLFKILKRILRYLRKPVR-NH2) [Peptide P146] | 51.2 µM | 1.6 µM |  |
| J LKKVWKRVFRILKRFLRYLKRPVR B (Ac-LKKVWKRVFRILKRFLRYLKRPVR-NH2) [Peptide P157] | 51.2 µM | 0.8 µM |  |
| J LRRLWKRLVRIIKRIYRQLKRPVR B (Ac-LRRLWKRLVRIIKRIYRQLKRPVR-NH2) [Peptide P140] | 25.6 µM | 1.6 µM |  |
| Ac-LKRLYKRVFRLLKRYYRQLRRPVR-NH2 [Peptide P159, J LKRLYKRVFRLLKRYYRQLRRPVR B] | 12.8 µM | 1.6 µM | concentration inhibiting A. niger growth [2]: 102.4 µM; fold lower antifungal activity as compared to OP-145 ([2]; PBS): 2 fold; IC50 [3, 8]: 12800 nM; IC50 ([3]; plasma-coated wells (FIG. 3B), read-out: concentration inhibiting biofilm formation for 50%): 3200 nM; higher bactericidal activity as compared to OP-145 [4]: 43 fold; IC90 [5]: 0.25 nM; IC50 ([5]; diluted whole human blood, 20 hours): 0.05 nM; IC50 [6]: 0.195 µM; fold increased LTA-neutralizing ability versus OP-145 [7]: 4 fold; IC50 [7]: 0.195 µM |
| Ac-LKRLYKALAKLIKRLYRYLKKPVR-NH2 [Peptide P252, J LKRLYKALAKLIKRLYRYLKKPVR B] |  |  | LC99.9 ([1]; 50% plasma, experiment 2013.01.15 (Table 6)): 51.2 µM; LC99.9 ([1]; 50% plasma, experiment 2013.01.18 (Table 6)): 12.8 µM; LC99.9 ([1]; PBS, experiment 2013.01.15 (Table 6)): 1.6 µM; LC99.9 ([1]; PBS, experiment 2013.01.18 (Table 6)): 0.8 µM |
| J LRRVYKRLFRLWKRIIRQLRRPVR B (Ac-LRRVYKRLFRLWKRIIRQLRRPVR-NH2) [Peptide P158] | 25.6 µM | 1.6 µM |  |
| J LKKLYKRLFKLWKRLYRYLKKPVR B (Ac-LKKLYKRLFKLWKRLYRYLKKPVR-NH2) [Peptide P151] | 25.6 µM | 1.6 µM |  |
| J LKKVYKRVARLIKRLFRYLKRPVR B [Peptide P155] | 102.4 µM | 1.6 µM | fold increase of activity in the presence of plasma as compared to OP-145 ([1]; 50% plasma): 2 fold |
| J LKKVYKRLARLLKRYIRYLRRPVR B (Ac-LKKVYKRLARLLKRYIRYLRRPVR-NH2) [Peptide P149] | 102.4 µM | 1.6 µM | fold increase of activity in the presence of plasma as compared to OP-145 ([1]; 50% plasma): 2 fold |
| J LRRVYKRLARLIKRYLRQLKKPVR B (Ac-LRRVYKRLARLIKRYLRQLKKPVR-NH2) [Peptide P152] | 25.6 µM | 1.6 µM |  |
| J LRRLWKRVFKIIKRLFRQLKKPVR B (Ac-LRRLWKRVFKIIKRLFRQLKKPVR-NH2) [Peptide P163] | 25.6 µM | 0.8 µM |  |
| J LRRVWKRVARIIKRLYRYLKRPVR B (Ac-LRRVWKRVARIIKRLYRYLKRPVR-NH2) [Peptide P161] | 25.6 µM | 1.6 µM |  |
| J LKKLYKRVAKIWKRWIRYLKKPVR B (Ac-LKKLYKRVAKIWKRWIRYLKKPVR-NH2) [Peptide P144] | 25.6 µM | 1.6 µM | fold increase of activity in the presence of plasma as compared to OP-145 ([1]; 50% plasma): 8 fold |
| Ac-LKRLYKRLAKLIKRLYRYLKKPVR-NH2 [Peptide P145, J LKRLYKRLAKLIKRLYRYLKKPVR B] | 25.6 µM | 1.6 µM | concentration inhibiting A. niger growth [2]: 102.4 µM; IC50 [3, 8]: 6400 nM; concentration needed to inhibit biofilm formation for 50%, relative to OP-145 and P159 ([3]; plasma-coated wells (FIG. 3B)): two-fold higher concentration; higher bactericidal activity as compared to OP-145 [4]: 43 fold; IC90 [5]: 0.75 nM; fold higher concentration than OP-145 needed to inhibit S. aureus-induced IL-8 production for >50% [6]: 8 fold; IC50 [6]: 1.56 µM; fold increased LTA-neutralizing ability versus OP-145 [7]: 4 fold; IC50 [7]: 0.195 µM |
| J LRKLWKRVVKIWKRYLRQLRRPVR B (Ac-LRKLWKRVVKIWKRYLRQLRRPVR-NH2) [Peptide P153] | 25.6 µM | 1.6 µM |  |
| J LRRLWKRLVKLWKRFFRYLKKPVR B [Peptide P156] | 51.2 µM | 1.6 µM |  |
| J LKRLWKRLFKILKRYYRYLRRPVR B (Ac-LKRLWKRLFKILKRYYRYLRRPVR-NH2) [Peptide P162] | 25.6 µM | 1.6 µM |  |
| J LRRLYKRVVKLWKRLFRQLRRPVR B (Ac-LRRLYKRVVKLWKRLFRQLRRPVR-NH2) [Peptide P143] | 51.2 µM | 1.6 µM | fold increase of activity in the presence of plasma as compared to OP-145 ([1]; 50% plasma): 4 fold |
| J LKKLWKRLARLLKRFIRQLRRPVR B (Ac-LKKLWKRLARLLKRFIRQLRRPVR-NH2) [Peptide P147] | 51.2 µM | 1.6 µM |  |
| J LRRLWKRLVKILKRWFRYLRRPVR B (Ac-LRRLWKRLVKILKRWFRYLRRPVR-NH2) [Peptide P142] | 51.2 µM | 0.8 µM |  |
| J LRKLWKRLAKIIKRLYRYLRRPVR B (Ac-LRKLWKRLAKIIKRLYRYLRRPVR-NH2) [Peptide P154] | 51.2 µM | 1.6 µM |  |
| J LKKLWKRVFRIWKRIFRYLKRPVR B (Ac-LKKLWKRVFRIWKRIFRYLKRPVR-NH2) [Peptide P139] | 51.2 µM | 0.8 µM |  |
| J LKKLWKRLARLWKRIIRQLKKPVR B (Ac-LKKLWKRLARLWKRIIRQLKKPVR-NH2) [Peptide P160] | 25.6 µM | 1.6 µM |  |
